This assay deals with T1, androgen receptor (Homo sapiens, UniProt P10275).
T1 sequence (P10275 1-920 Q868H): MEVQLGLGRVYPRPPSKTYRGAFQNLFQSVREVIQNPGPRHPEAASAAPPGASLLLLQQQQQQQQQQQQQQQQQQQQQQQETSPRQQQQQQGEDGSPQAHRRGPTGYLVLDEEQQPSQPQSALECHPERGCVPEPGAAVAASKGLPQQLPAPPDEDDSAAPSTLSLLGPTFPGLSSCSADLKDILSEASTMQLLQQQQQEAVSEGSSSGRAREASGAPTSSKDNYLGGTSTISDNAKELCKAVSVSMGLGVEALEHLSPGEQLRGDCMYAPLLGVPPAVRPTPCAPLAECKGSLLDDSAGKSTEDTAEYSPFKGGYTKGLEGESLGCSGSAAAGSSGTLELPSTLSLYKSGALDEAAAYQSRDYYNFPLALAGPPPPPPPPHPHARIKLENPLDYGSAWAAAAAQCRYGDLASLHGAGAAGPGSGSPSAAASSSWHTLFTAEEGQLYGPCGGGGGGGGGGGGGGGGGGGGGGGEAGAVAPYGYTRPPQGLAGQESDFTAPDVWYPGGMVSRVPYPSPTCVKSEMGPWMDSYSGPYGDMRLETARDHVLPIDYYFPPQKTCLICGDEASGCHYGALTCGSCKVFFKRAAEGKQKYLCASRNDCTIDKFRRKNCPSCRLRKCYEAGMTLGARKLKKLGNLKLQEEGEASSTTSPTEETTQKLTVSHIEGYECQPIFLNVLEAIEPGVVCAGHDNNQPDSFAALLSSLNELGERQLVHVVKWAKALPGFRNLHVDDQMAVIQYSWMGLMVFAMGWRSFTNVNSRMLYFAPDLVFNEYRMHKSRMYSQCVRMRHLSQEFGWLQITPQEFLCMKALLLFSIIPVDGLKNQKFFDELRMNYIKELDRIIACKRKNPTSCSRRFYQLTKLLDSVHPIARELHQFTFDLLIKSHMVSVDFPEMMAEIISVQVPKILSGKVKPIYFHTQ
Briefly: AR Antagonist Cell Assay (MMTV-luciferase reporter, DHT-induced). The class given is cell-based. The note with it: MDA-MB453-MMTV clone 54-19 cells, 100 pM DHT, 17 hr. As for the experimental part: The compounds ability to antagonize the effects of androgen on the androgen receptor were determined in the protocol described immediately below.
Experimental Procedure for AR Antagonist Cell Assay
Cell line: MDA-MB453-MMTV clone 54-19. This cell line is a stable transfected cell line with MDA-MB453 cell background (human breast tumor cell expressing high level of androgen receptor). A MMTV minimal promoter containing ARE was first cloned in front of a firefly luciferase reporter gene. Then the cascade was cloned into transfection vector pUV120puro. Electroporation method was used for transfecting MDA-MB-453 cell. Puromycin resistant stable cell line was selected.
Cell Culture Media and Reagents:
Culture medium: DMEM (high glucose, Gibco cat #: 11960-044), 10% FBS, and 1% L-glutamine
Plating medium: DMEM (phenol red free), 10% charcoal treated HyClone serum, 1% L-glutamine
Assay medium: DMEM (phenol red free), 1% charcoal treated HyClone serum, 1% L-glutamine, and 1% penicillin/streptomycin
3× luciferase buffer: 2% beta-mercaptoethanol, 0.6% ATP, 0.0135% luciferine in cell lysis buffer
• 1. Cells are maintained in culture medium, splitting cells when they reach 80–90% confluence • 2. To test compounds, 10,000 cells/well are plated to opaque 96 cell culture plate in 100 ul/well plating medium, culture for overnight at 37° C. in cell culture incubator • 3. Carefully remove plating medium, then add 80 ul/well of pre-warmed assay medium, add 10 ul/well testing compound (final concentration at 10 uM or 1 uM), incubate at 37° C. for 30 minutes • 4. Add 10 ul/well freshly prepared DHT (final concentration at 100 pM) to each well, incubate at 37° C. for 17 hr (overnight) • 5. Add 50 ul/well 3× luciferase buffer, incubate at room temperature for 5 minutes, then count on Luminometer The fold induction over background by 100 pM DHT in the absence of testing compounds is standardized as 100% and experimental result is expressed as percentage of inhibition by testing compounds. TABLE3
A general note: In a reporter assay the amount or activity of a reporter protein is the signal.

Turning to `CCc1cccc(NS(=O)(=O)c2ccc3c(c2)c(C(F)(F)F)cc(=O)n3C)c1` [Example 16, 1-Methyl-2-oxo-4-trifluoromethyl-1,2-dihydroquinoline-6-sulfonicacid (3-ethylphenyl)amide], 5030 nM corresponded to half-maximal inhibition (IC50). Regarding `CC(C)Oc1cccc(NS(=O)(=O)c2ccc3c(c2)c(C(F)(F)F)cc(=O)n3C)c1` [Example 37, 1-Methyl-2-oxo-4-trifluoromethyl-1,2-dihydroquinoline-6-sulfonicacid (3-isopropoxyphenyl)-amide], inhibition was half-maximal at 6100 nM (IC50).

`Cn1c(=O)cc(C(F)(F)F)c2cc(S(=O)(=O)Nc3ccc(CC#N)cc3)ccc21` [Example 21, 1-Methyl-2-oxo-4-trifluoromethyl-1,2-dihydroquinoline-6-sulfonicacid (4-cyanomethylphenyl)amide]: 990 nM corresponded to half-maximal inhibition (IC50). The same measure for `O=c1cc(C(F)(F)F)c2cc(S(=O)(=O)Nc3ccc4c(c3)OCO4)ccc2[nH]1` [Example 98, 2-Oxo-4-trifluoromethyl-1,2-dihydroquinoline-6-sulfonic acidbenzo[1,3]dioxol-5-ylamide]: more than 10000 nM; for `CN1CCCC1CCNS(=O)(=O)c1ccc2[nH]c(=O)cc(C(F)(F)F)c2c1` (stereo not drawn) [Example 134, 2-Oxo-4-trifluoromethyl-1,2-dihydroquinoline-6-sulfonic acid[2-(1-methylpyrrolidin-2-yl)ethyl]amide]: more than 10000 nM; for `O=c1cc(C(F)(F)F)c2cc(S(=O)(=O)NCc3cc(C(F)(F)F)ccc3F)ccc2[nH]1` [Example 158, 2-Oxo-4-trifluoromethyl-1,2-dihydroquinoline-6-sulfonic acid2-fluoro-5-trifluoromethylbenzylamide]: 6610 nM. For the compound `O=c1cc(C(F)(F)F)c2cc(S(=O)(=O)NCCc3c[nH]c4ccccc34)ccc2o1` [Example 67, 2-Oxo-4-trifluoromethyl-2H-chromene-6-sulfonic acid [2-(1H-indol-3-yl)ethyl]amide], the IC50 (in general, the midpoint of a concentration-inhibition curve) is more than 10000 nM. The same measure for `O=c1cc(C(F)(F)F)c2cc(S(=O)(=O)NC3CCc4ccccc43)ccc2[nH]1` (stereo not drawn) [Example 130, 2-Oxo-4-trifluoromethyl-1,2-dihydroquinoline-6-sulfonic acidindan-1-ylamide]: 1030 nM; for `Cn1nc(C(C)(C)C)cc1NS(=O)(=O)c1ccc2[nH]c(=O)cc(C(F)(F)F)c2c1` [Example 104, 2-Oxo-4-trifluoromethyl-1,2-dihydroquinoline-6-sulfonic acid(5-tert-butyl-2-methyl-2H-pyrazol-3-yl)amide]: more than 10000 nM. `CC(C)(Cc1ccc(F)cc1)NS(=O)(=O)c1ccc2[nH]c(=O)cc(C(F)(F)F)c2c1` [Example 150, 2-Oxo-4-trifluoromethyl-1,2-dihydroquinoline-6-sulfonic acid[2-(4-fluorophenyl)-1,1-dimethylethyl]amide] yielded an IC50 of 1830 nM. The value for `O=c1cc(C(F)(F)F)c2cc(S(=O)(=O)NCc3ccccc3C(F)(F)F)ccc2[nH]1` [Example 153, 2-Oxo-4-trifluoromethyl-1,2-dihydroquinoline-6-sulfonic acid2-trifluoromethylbenzylamide] was 750 nM; that for `O=c1cc(C(F)(F)F)c2cc(S(=O)(=O)NCC(c3ccccc3)c3ccccc3)ccc2[nH]1` [Example 159, 2-Oxo-4-trifluoromethyl-1,2-dihydroquinoline-6-sulfonic acid(2,2-diphenylethyl)amide] was 1560 nM; that for `CSc1cccc(NS(=O)(=O)c2ccc3[nH]c(=O)cc(C(F)(F)F)c3c2)c1` [Example 101, 2-Oxo-4-trifluoromethyl-1,2-dihydroquinoline-6-sulfonic acid(3-methylsulfanylphenyl)amide] was 360 nM. The compound `COc1cc(CNS(=O)(=O)c2ccc3[nH]c(=O)cc(C(F)(F)F)c3c2)cc(OC)c1` [Example 149, 2-Oxo-4-trifluoromethyl-1,2-dihydroquinoline-6-sulfonic acid3,5-dimethoxybenzylamide] gave an IC50 of more than 10000 nM. `CN(CCc1ccccc1)S(=O)(=O)c1ccc2[nH]c(=O)cc(C(F)(F)F)c2c1` [Example 78, 2-Oxo-4-trifluoromethyl-1,2-dihydroquinoline-6-sulfonic acidmethylphenethylamide] showed an IC50 of 150 nM.

The compound `Cn1c(=O)cc(C(F)(F)F)c2cc(S(=O)(=O)NCCC3=CCCCC3)ccc21` [Example 53, 1-Methyl-2-oxo-4-trifluoromethyl-1,2-dihydroquinoline-6-sulfonicacid (2-cyclohex-1-enylethyl)amide] displayed an IC50 of 1840 nM.

Regarding `CCc1cccc(NS(=O)(=O)c2ccc3[nH]c(=O)cc(C(F)(F)F)c3c2)c1` [Example 88, 2-Oxo-4-trifluoromethyl-1,2-dihydroquinoline-6-sulfonic acid(3-ethylphenyl)amide], the concentration for half-maximal inhibition (IC50) was 130 nM. The same measure for `O=c1cc(C(F)(F)F)c2cc(S(=O)(=O)Nc3ccc(CCO)cc3)ccc2[nH]1` [Example 113, 2-Oxo-4-trifluoromethyl-1,2-dihydroquinoline-6-sulfonic acid[4-(2-hydroxyethyl)phenyl]amide]: more than 10000 nM. `Cc1ccc(NS(=O)(=O)c2ccc3[nH]c(=O)cc(C(F)(F)F)c3c2)cc1` [Example 83, 2-Oxo-4-trifluoromethyl-1,2-dihydroquinoline-6-sulfonic acidp-tolylamide] had an IC50 of 1140 nM. The same measure for `Cc1cc(=O)oc2cc(NS(=O)(=O)c3ccc4[nH]c(=O)cc(C(F)(F)F)c4c3)ccc12` [Example 111, 2-Oxo-4-trifluoromethyl-1,2-dihydroquinoline-6-sulfonic acid(4-methyl-2-oxo-2H-chromen-7-yl)amide]: more than 10000 nM; for `O=c1cc(C(F)(F)F)c2cc(S(=O)(=O)NCc3cccnc3)ccc2o1` [Example 64, 2-Oxo-4-trifluoromethyl-2H-chromene-6-sulfonic acid(pyridin-3-ylmethyl)amide]: more than 10000 nM. On to `O=c1cc(C(F)(F)F)c2cc(S(=O)(=O)NCCc3c[nH]c4ccccc34)ccc2[nH]1` [Example 147, 2-Oxo-4-trifluoromethyl-1,2-dihydroquinoline-6-sulfonic acid[2-(1H-indol-3-yl)ethyl]amide], for which the concentration for half-maximal inhibition (IC50) worked out at 260 nM. The value for `CC(C)NS(=O)(=O)c1ccc2[nH]c(=O)cc(C(F)(F)F)c2c1` [Example 117, 2-Oxo-4-trifluoromethyl-1,2-dihydroquinoline-6-sulfonic acidisopropylamide] was 2340 nM; that for `O=c1cc(C(F)(F)F)c2cc(S(=O)(=O)NCc3cccs3)ccc2[nH]1` [Example 118, 2-Oxo-4-trifluoromethyl-1,2-dihydroquinoline-6-sulfonic acid(thiophen-2-ylmethyl)amide] was more than 10000 nM. `Cc1ccc(-c2ccccc2)cc1NS(=O)(=O)c1ccc2c(c1)c(C(F)(F)F)cc(=O)n2C` [Example 27, 1-Methyl-2-oxo-4-trifluoromethyl-1,2-dihydroquinoline-6-sulfonicacid (4-methylbipheny-3-yl)amide] registered an IC50 of 840 nM. Compound `CC(C)CCNS(=O)(=O)c1ccc2[nH]c(=O)cc(C(F)(F)F)c2c1` [Example 121, 2-Oxo-4-trifluoromethyl-1,2-dihydroquinoline-6-sulfonic acid(3-methylbutyl)amide] displayed an IC50 of 280 nM. The value for `O=c1cc(C(F)(F)F)c2cc(S(=O)(=O)N(CCO)Cc3ccccc3)ccc2[nH]1` [Example 71, 2-Oxo-4-trifluoromethyl-1,2-dihydroquinoline-6-sulfonic acidbenzyl(2-hydroxyethyl)amide] was 1310 nM.

These data come from US7009052B2, “Sulfonamide derivatives” (Warner Lambert Company LLC, priority 2003, dated 2006).
